Patent US8168592B2 (Amgen Inc., priority 2005, dated 2012)
pIC50: −log10 of the molar value. Bridge positions count the residues as written; N and C are the ends. Square brackets hold non-standard residues; d marks the D form. Ends that are not written are not given here. Peptide text beside a SMILES is read from it. Oic = O=C(O)[C@@H]1C[C@@H]2CCCC[C@@H]2N1; 1Nal = N[C@@H](Cc1cccc2ccccc12)C(=O)O; 2Nal = N[C@@H](Cc1ccc2ccccc2c1)C(=O)O; hArg = N=C(N)NCCCC[C@H](N)C(=O)O; Cit = NC(=O)NCCC[C@H](N)C(=O)O; Nle = CCCC[C@H](N)C(=O)O; PEG = not defined here

target: T1, CGRP1 receptor (Homo sapiens, UniProt O60894+Q16602); experiment: in vitro CGRP1 receptor mediated cAMP assay in SK-N-MC cells; assay type: cell-based; conditions: not given
T1 construct: SK-N-MC cells express CRLR and RAMP1, which form CGRP1 receptor; endogenous in cells; host or cells: SK-N-MC human neuroblastoma cells
In short: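 Human SK-N-MC neuroblastoma cells, which endogenously express CRLR/RAMP1, were plated two days before assay and preincubated in plasma-free medium for 15 minutes at room temperature. Cells were then lysed for 30 minutes at 37° C, and cAMP in the lysates was quantified by competitive cAMP-AP chemiluminescent ELISA.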

T1 sequence (Q16602 23-461): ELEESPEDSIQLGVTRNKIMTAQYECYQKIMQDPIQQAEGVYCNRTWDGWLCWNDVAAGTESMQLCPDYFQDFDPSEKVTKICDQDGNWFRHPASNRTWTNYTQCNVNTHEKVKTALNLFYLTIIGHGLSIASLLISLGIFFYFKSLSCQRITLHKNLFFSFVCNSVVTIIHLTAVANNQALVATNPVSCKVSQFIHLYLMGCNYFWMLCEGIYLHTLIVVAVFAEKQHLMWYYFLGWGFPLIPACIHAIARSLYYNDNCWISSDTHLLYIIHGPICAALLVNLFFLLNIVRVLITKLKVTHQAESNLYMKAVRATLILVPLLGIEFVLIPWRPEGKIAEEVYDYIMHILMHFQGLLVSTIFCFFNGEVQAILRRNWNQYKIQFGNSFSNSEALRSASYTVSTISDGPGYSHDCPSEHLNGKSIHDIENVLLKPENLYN
T1 sequence (O60894 27-148): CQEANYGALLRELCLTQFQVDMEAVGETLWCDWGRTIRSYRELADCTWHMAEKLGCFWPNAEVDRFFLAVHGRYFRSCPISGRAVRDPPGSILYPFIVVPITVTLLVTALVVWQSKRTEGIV

Molecule | antagonist activity in cAMP assay, in words
SEQ ID NO:2 (CGGGGGGGVTHRLAGLLSRSGGVVKNNFVPTNVGSKAF-NH2) | deleterious to potency
SEQ ID NO:8 (Ac-WVTHRLAGLLSRSGGVVRCNFVPTDVGPFAF-NH2) | somewhat less active
SEQ ID NO:9 (Ac-WVTHRLAGLLSRSGGVVCNNFVPTDVGPFAF-NH2) | somewhat less active
SEQ ID NO:14 (Ac-WVTHRLAGLLSRSGGVVC(PEG)NNFVPTDVGPFAF-NH2; reading uncertain) | little effect on the antagonist activity of the parent peptide
SEQ ID NO:21 (WVTHXLAGLLSRSGGVVRKNFVPTDVGPFAF; CGRP peptide; MOD_RES (1)..(1): …ON; MISC_FEATURE (5)..(5): xaa=homoarginine; MOD_RES (31)..(31): AMIDATION) | well tolerated
SEQ ID NO:22 (WVTHXLAGLLSRSGGVVRKNFVPTDVGPFAF; CGRP peptide; MOD_RES (1)..(1): …ON; MISC_FEATURE (5)..(5): xaa=homoarginine; MISC_FEATURE (19)..(19): PEGylated; MOD_RES (31)..(31): AMIDATION) | retaining their CGRP1 receptor antagonist activity
SEQ ID NO:23 (WVTHRLAGLLSXSGGVVRKNFVPTDVGPFAF; CGRP peptide; MOD_RES (1)..(1): …ON; MISC_FEATURE (12)..(12): xaa=homoarginine; MOD_RES (31)..(31): AMIDATION) | well tolerated
SEQ ID NO:24 (WVTHRLAGLLSXSGGVVRKNFVPTDVGPFAF; CGRP peptide; MOD_RES (1)..(1): …ON; MISC_FEATURE (12)..(12): xaa=homoarginine; MISC_FEATURE (19)..(19): PEGylated; MOD_RES (31)..(31): AMIDATION) | retaining their CGRP1 receptor antagonist activity
SEQ ID NO:26 (WVTHXLAGLLSXSGGVVRKNFVPTDVGPFAF; CGRP peptide; MOD_RES (1)..(1): …ON; MISC_FEATURE (5)..(5): xaa=homoarginine; MISC_FEATURE (12)..(12): xaa=homoarginine; MISC_FEATURE (19)..(19): PEGylated; MOD_RES (31)..(31): AMIDATION) | antagonist activity returned to the levels of the two peptides with single substitutions

same assay, conditions: Table 2C; unconjugated peptide; read-out: Peptide IC50

pIC50 | Molecule
9.06 | CC(=O)N[C@@H](Cc1c[nH]c2ccccc12)C(=O)N[C@H](C(=O)N[C@H](C(=O)N[C@@H](Cc1c[nH]cn1)C(=O)N[C@@H](CCCNC(N)=O)C(=O)N[C@@H](CC(C)C)C(=O)N[C@@H](C)C(=O)NCC(=O)N[C@@H](CC(C)C)C(=O)N[C@@H](CC(C)C)C(=O)N[C@@H](CO)C(=O)N[C@@H](CCCNC(N)=O)C(=O)N[C@@H](CO)C(=O)NCC(=O)NCC(=O)N[C@H](C(=O)N[C@H](C(=O)N[C@@H](CCCCNC(=N)N)C(=O)N[C@@H](CCCCN)C(=O)N[C@@H](CC(N)=O)C(=O)N[C@@H](Cc1ccccc1)C(=O)N[C@H](C(=O)N1CCC[C@H]1C(=O)N[C@H](C(=O)N[C@@H](CC(=O)O)C(=O)N[C@H](C(=O)NCC(=O)N1[C@H](C(=O)N[C@@H](Cc2cccc3ccccc23)C(=O)N[C@@H](C)C(=O)N[C@@H](Cc2ccccc2)C(N)=O)C[C@@H]2CCCC[C@@H]21)C(C)C)[C@@H](C)O)C(C)C)C(C)C)C(C)C)[C@@H](C)O)C(C)C [compound 933] (Ac-WVTH[Cit]LAGLLS[Cit]SGGVV[hArg]KNFVPTDVG[Oic][1Nal]AF-NH2)
8.73 | CCCC[C@H](NC(=O)[C@@H](NC(=O)CNC(=O)CNC(=O)[C@H](CO)NC(=O)[C@H](CCCNC(N)=O)NC(=O)[C@H](CO)NC(=O)[C@H](CC(C)C)NC(=O)[C@H](CC(C)C)NC(=O)CNC(=O)[C@H](C)NC(=O)[C@H](CC(C)C)NC(=O)[C@H](CCCNC(N)=O)NC(=O)[C@H](Cc1c[nH]cn1)NC(=O)[C@@H](NC(=O)[C@@H](NC(=O)[C@H](Cc1c[nH]c2ccccc12)NC(C)=O)C(C)C)[C@@H](C)O)C(C)C)C(=O)N[C@@H](CCCNC(=N)N)C(=O)N[C@@H](CCCCN)C(=O)N[C@@H](CC(N)=O)C(=O)N[C@@H](Cc1ccccc1)C(=O)N[C@H](C(=O)N1CCC[C@H]1C(=O)N[C@H](C(=O)N[C@@H](CC(=O)O)C(=O)N[C@H](C(=O)NCC(=O)N1CCC[C@H]1C(=O)N[C@@H](Cc1ccccc1)C(=O)N[C@@H](C)C(=O)N[C@@H](Cc1ccccc1)C(N)=O)C(C)C)[C@@H](C)O)C(C)C [compound 940] (Ac-WVTH[Cit]LAGLLS[Cit]SGGV[Nle]RKNFVPTDVGPFAF-NH2)
9.08 | CC(=O)N[C@@H](Cc1c[nH]c2ccccc12)C(=O)N[C@H](C(=O)N[C@H](C(=O)N[C@@H](Cc1c[nH]cn1)C(=O)N[C@@H](CCCCNC(=N)N)C(=O)N[C@@H](CC(C)C)C(=O)N[C@H]1CCC(=O)NCCCC[C@@H](C(=O)N[C@@H](CCCNC(N)=O)C(=O)N[C@@H](CO)C(=O)NCC(=O)NCC(=O)N[C@H](C(=O)N[C@H](C(=O)N[C@@H](CCCCNC(=N)N)C(=O)N[C@@H](CCCCN)C(=O)N[C@@H](CC(N)=O)C(=O)N[C@@H](Cc2ccccc2)C(=O)N[C@H](C(=O)N2CCC[C@H]2C(=O)N[C@H](C(=O)N[C@@H](CC(=O)O)C(=O)N[C@H](C(=O)NCC(=O)N2[C@H](C(=O)N[C@@H](Cc3ccccc3)C(=O)N[C@@H](C)C(=O)N[C@@H](Cc3ccccc3)C(N)=O)C[C@@H]3CCCC[C@@H]32)C(C)C)[C@@H](C)O)C(C)C)C(C)C)C(C)C)NC(=O)[C@H](CC(C)C)NC(=O)[C@H](CC(C)C)NC(=O)CNC1=O)[C@@H](C)O)C(C)C [compound 942] (Ac-WVTH[hArg]LEGLLK[Cit]SGGVV[hArg]KNFVPTDVG[Oic]FAF-NH2; lactam 7-11)
9.07 | CC(=O)N[C@@H](Cc1c[nH]c2ccccc12)C(=O)N[C@H](C(=O)N[C@H](C(=O)N[C@@H](Cc1c[nH]cn1)C(=O)N[C@@H](CCCNC(N)=O)C(=O)N[C@@H](CC(C)C)C(=O)N[C@@H](C)C(=O)NCC(=O)N[C@H]1CCC(=O)NCCCC[C@@H](C(=O)NCC(=O)NCC(=O)N[C@H](C(=O)N[C@H](C(=O)N[C@@H](CCCCNC(=N)N)C(=O)N[C@@H](CCCCN)C(=O)N[C@@H](CC(N)=O)C(=O)N[C@@H](Cc2ccccc2)C(=O)N[C@H](C(=O)N2CCC[C@H]2C(=O)N[C@H](C(=O)N[C@@H](CC(=O)O)C(=O)N[C@H](C(=O)NCC(=O)N2[C@H](C(=O)N[C@@H](Cc3cccc4ccccc34)C(=O)N[C@@H](C)C(=O)N[C@@H](Cc3ccccc3)C(N)=O)C[C@@H]3CCCC[C@@H]32)C(C)C)[C@@H](C)O)C(C)C)C(C)C)C(C)C)NC(=O)[C@H](CCCCNC(=N)N)NC(=O)[C@H](CO)NC(=O)[C@H](CC(C)C)NC1=O)[C@@H](C)O)C(C)C [compound 944] (Ac-WVTH[Cit]LAGELS[hArg]KGGVV[hArg]KNFVPTDVG[Oic][1Nal]AF-NH2; lactam 9-13)
8.58 | CC(=O)N[C@@H](Cc1c[nH]c2ccccc12)C(=O)N[C@H](C(=O)N[C@H](C(=O)N[C@@H](Cc1c[nH]cn1)C(=O)N[C@@H](CCCNC(N)=O)C(=O)N[C@@H](CC(C)C)C(=O)N[C@@H](C)C(=O)NCC(=O)N[C@@H](CC(C)C)C(=O)N[C@@H](CC(C)C)C(=O)N[C@H](CO)C(=O)N[C@@H](CCCNC(N)=O)C(=O)N[C@@H](CO)C(=O)NCC(=O)NCC(=O)N[C@H](C(=O)N[C@H](C(=O)N[C@@H](CCCCNC(=N)N)C(=O)N[C@@H](CCCCN)C(=O)N[C@@H](CC(N)=O)C(=O)N[C@@H](Cc1ccc2ccccc2c1)C(=O)N[C@H](C(=O)N1CCC[C@H]1C(=O)N[C@H](C(=O)N[C@@H](CC(=O)O)C(=O)N[C@H](C(=O)NCC(=O)N1[C@H](C(=O)N[C@@H](Cc2ccccc2)C(=O)N[C@@H](C)C(=O)N[C@@H](Cc2ccccc2)C(N)=O)C[C@@H]2CCCC[C@@H]21)C(C)C)[C@@H](C)O)C(C)C)C(C)C)C(C)C)[C@@H](C)O)C(C)C [compound 953] (Ac-WVTH[Cit]LAGLL[dS][Cit]SGGVV[hArg]KN[2Nal]VPTDVG[Oic]FAF-NH2)
9.28 | Ac-WVTHQLAGLLSQSGGVVRKNFVPTDVGPFAF-NH2 [compound 857]
9.33 | Ac-WVTHRLAGLLSQSGGVVRKNFVPTDVGPFAF-NH2 [compound 856]
8.85 | Ac-WVTHRLAGLLSRPGGVVRKNFVPTDVGPFAF-NH2 [compound 860]
8.94 | Ac-WVTHRLAGLLSRSGGVVRKNFVPTDVGSKAF-NH2 [compound 915]

same assay, conditions: Table 2D; read-out: IC50

pIC50 | Molecule
8.56 | Ac-WVTHRLAGLLSASGGVVRCNFVPTDVGPFAF-NH2 [compound 772]
8.90 | Ac-WVTHRLAGLLSRPGGVVRKNFVPTDVGPFAF-NH2 [compound 854]
9.44 | Ac-WVTHRLAGLLSRSGGVCRNNFVPTDVGPFAF-NH2 [compound 820]
9.29 | Ac-WVTHRLAGLLSRSGGVKRNNFVPTDVGPFAF-NH2 [compound 823]

same assay, conditions: Table 3; unconjugated CGRP peptide analogs; n = 2-4; read-out: IC50

pIC50 | Molecule
8.67 | Ac-WVTHRLAGLLSRSGGVVCNNFVPTDVGPFAF-NH2 [compound 9]
9.14 | H-CGGGGGGGVTHRLAGLLSRSGGVVKNNFVPTDVGPFAF-NH2 [compound 3]

same assay, conditions: Table 7; R11 and/or R18 stability analogs, with or without 20 kDa PEG; read-out: IC50

pIC50 | Molecule
9.43 | Ac-WVTHRLAGLLSQSGGVVRCNFVPTDVGPFAF-NH2 [compound 35]

same assay, conditions: cAMP assay

improved potency relative to native CGRP(8-37) (SEQ ID NO:1) | loss in antagonist activity on PEGylation relative to the unconjugated parent peptide | Molecule
more than 6 fold | – | SEQ ID NO:3 (CGGGGGGGVTHRLAGLLSRSGGVVKNNFVPTDVGPFAF-NH2)
greater than 7 fold | – | SEQ ID NO:4 (WVTHRLAGLLSRSGGVVKNNFVPTNVGSKAF-NH2)
greater than 35 fold | – | SEQ ID NO:5 (Ac-WVTHRLAGLLSRSGGVVKNNFVPTDVGPFAF-NH2)
about 12 fold | three | SEQ ID NO:16 (Ac-WVTHRLAGLLSRSGGVVRK(PEG)NFVPTDVGPFAF-NH2; reading uncertain)

same assay, conditions: unPEGylated peptides

improvement in potency compared to SEQ ID NO:9 | Molecule
more than 4 fold | SEQ ID NO:8 (Ac-WVTHRLAGLLSRSGGVVRCNFVPTDVGPFAF-NH2)
